According to ChEMBL document CHEMBL4229423 (Bioorg Med Chem, 2018):

Assays:
Platelet [1] = test: Antiplatelet activity in rabbit platelet rich plasma assessed as inhibition of ADP-induced platelet aggregation at 0.1 mM preincubated for 5 mins followed by ADP addition measured up to 5 mins; type: functional; conditions: Oryctolagus cuniculus
Platelet [2] = test: Antiplatelet activity in rabbit platelet rich plasma assessed as inhibition of ADP-induced platelet aggregation at 0.1 mM preincubated for 5 mins followed by ADP addition measured up to 5 mins in presence of NO scavenger carboxy-PTIO; type: functional; conditions: Oryctolagus cuniculus
Mus musculus [3] = test: Antihyperglycemic activity in fasting ICR mouse assessed as decrease in plasma glucose AUC (0 to 120 mins) at 20 mg/kg, po administered 30 mins prior to glucose challenge measured after 120 mins by OGTT relative to control; type: functional; parameters: scale not given: the % may be the effect or the level left
Mus musculus [4] = test: Antidiabetic activity in ICR mouse assessed as increase in urinary glucose excretion by measuring urine glucose levels at 20 mg/kg, po administered 30 mins prior to glucose challenge measured after 15 mins; type: functional
Mus musculus [5] = test: Antidiabetic activity in ICR mouse assessed as increase in urinary glucose excretion by measuring urine glucose levels at 20 mg/kg, po administered 30 mins prior to glucose challenge measured after 30 mins; type: functional
Mus musculus [6] = test: Antidiabetic activity in ICR mouse assessed as increase in urinary glucose excretion by measuring urine glucose levels at 20 mg/kg, po administered 30 mins prior to glucose challenge measured after 60 mins; type: functional
Mus musculus [7] = test: Antidiabetic activity in ICR mouse assessed as increase in urinary glucose excretion by measuring urine glucose levels at 20 mg/kg, po administered 30 mins prior to glucose challenge measured after 120 mins; type: functional
[8] = target: T1, Sodium/glucose cotransporter 2 (Homo sapiens, UniProt P31639); test: Inhibition of SGLT2 (unknown origin)
T1 sequence (P31639 whole entry): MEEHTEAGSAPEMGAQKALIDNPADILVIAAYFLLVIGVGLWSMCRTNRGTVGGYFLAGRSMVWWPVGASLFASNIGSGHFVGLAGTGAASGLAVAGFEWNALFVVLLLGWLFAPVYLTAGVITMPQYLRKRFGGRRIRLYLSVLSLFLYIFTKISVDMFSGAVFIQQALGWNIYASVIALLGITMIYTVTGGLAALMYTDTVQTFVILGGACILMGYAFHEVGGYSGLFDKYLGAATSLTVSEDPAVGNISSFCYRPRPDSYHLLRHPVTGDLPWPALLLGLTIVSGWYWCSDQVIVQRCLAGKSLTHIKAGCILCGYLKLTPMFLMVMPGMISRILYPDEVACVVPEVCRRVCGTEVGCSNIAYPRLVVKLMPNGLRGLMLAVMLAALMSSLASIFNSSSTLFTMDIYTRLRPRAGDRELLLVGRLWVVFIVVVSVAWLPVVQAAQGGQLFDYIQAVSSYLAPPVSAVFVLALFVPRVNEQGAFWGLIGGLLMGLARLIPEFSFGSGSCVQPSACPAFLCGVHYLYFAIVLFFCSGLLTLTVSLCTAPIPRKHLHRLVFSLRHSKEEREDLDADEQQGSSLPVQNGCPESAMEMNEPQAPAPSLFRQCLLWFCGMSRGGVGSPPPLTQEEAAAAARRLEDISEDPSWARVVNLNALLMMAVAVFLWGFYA

In the case of O=[N+]([O-])OCCOc1ccc(Cc2cc([C@@H]3O[C@H](CO)[C@@H](O)[C@H](O)[C@H]3O)ccc2Cl)cc1, the inhibition at 100 µM (Platelet [1]) is reported as 11.6%.
O=[N+]([O-])OCCCOc1ccc(Cc2cc([C@@H]3O[C@H](CO)[C@@H](O)[C@H](O)[C@H]3O)ccc2Cl)cc1 gave an inhibition at 100 µM (Platelet [1]) of 14.4%, an inhibition at 100 µM (Platelet [2]) of 3.64% and an Activity (Mus musculus [3]) of 26.3%. It also gave an Activity (Mus musculus [4]) of 500 mg/dL, an Activity (Mus musculus [5]) of 2000 mg/dL and an Activity (Mus musculus [6]) of 1000 mg/dL. For the same compound, the Activity (Mus musculus [7]) was 500 mg/dL.
O=[N+]([O-])OCCCCOc1ccc(Cc2cc([C@@H]3O[C@H](CO)[C@@H](O)[C@H](O)[C@H]3O)ccc2Cl)cc1 showed an inhibition at 100 µM (Platelet [1]) of 14.1%.
OC[C@H]1O[C@@H](c2ccc(F)c(Cc3cc4ccccc4s3)c2)[C@H](O)[C@@H](O)[C@@H]1O [IPRAGLIFLOZIN] gave an IC50 [8] of 8.4 nM.
CCOc1ccc(Cc2cc([C@@H]3S[C@H](CO)[C@@H](O)[C@H](O)[C@H]3O)c(OC)cc2C)cc1 [LUSEOGLIFLOZIN] showed an IC50 [8] of 2.3 nM.
With CCc1ccc(Cc2ccc3c(c2)[C@]2(OC3)O[C@H](CO)[C@@H](O)[C@H](O)[C@H]2O)cc1 [TOFOGLIFLOZIN ANHYDROUS] the IC50 [8] was 4 nM.
